Data reported in PubChem BioAssay AID1259407 (Chemical Carcinogenesis Research Information System (CCRIS), 2018).
Active and inactive are the calls of the source. No rule for the calls is given here.

Test system: CCRIS mutagenicity, Ames/micronucleus/aberration tests
Assay: CCRIS mutagenicity studies
[1] = Test System: AMES SALMONELLA TYPHIMURIUM, Strain/Indicator: TA97, Metabolic Activation: NONE, Method: PREINCUBATION
[2] = Test System: AMES SALMONELLA TYPHIMURIUM, Strain/Indicator: TA98, Metabolic Activation: HAMSTER, LIVER, S-9, AROCLOR 1254 (10%), Method: PREINCUBATION
[3] = Test System: AMES SALMONELLA TYPHIMURIUM, Strain/Indicator: TA98, Metabolic Activation: HAMSTER, LIVER, S-9, AROCLOR 1254 (30%), Method: PREINCUBATION
[4] = Test System: AMES SALMONELLA TYPHIMURIUM, Strain/Indicator: TA98, Metabolic Activation: NONE, Method: PREINCUBATION
[5] = Test System: AMES SALMONELLA TYPHIMURIUM, Strain/Indicator: TA98, Metabolic Activation: RAT, LIVER, S-9, AROCLOR 1254 (10%), Method: PREINCUBATION
[6] = Test System: AMES SALMONELLA TYPHIMURIUM, Strain/Indicator: TA98, Metabolic Activation: RAT, LIVER, S-9, AROCLOR 1254 (30%), Method: PREINCUBATION
[7] = Test System: AMES SALMONELLA TYPHIMURIUM, Strain/Indicator: TA100, Metabolic Activation: HAMSTER, LIVER, S-9, AROCLOR 1254 (10%), Method: PREINCUBATION
[8] = Test System: AMES SALMONELLA TYPHIMURIUM, Strain/Indicator: TA100, Metabolic Activation: HAMSTER, LIVER, S-9, AROCLOR 1254 (30%), Method: PREINCUBATION
[9] = Test System: AMES SALMONELLA TYPHIMURIUM, Strain/Indicator: TA100, Metabolic Activation: NONE, Method: PREINCUBATION
[10] = Test System: AMES SALMONELLA TYPHIMURIUM, Strain/Indicator: TA100, Metabolic Activation: RAT, LIVER, S-9, AROCLOR 1254 (10%), Method: PREINCUBATION
[11] = Test System: AMES SALMONELLA TYPHIMURIUM, Strain/Indicator: TA100, Metabolic Activation: RAT, LIVER, S-9, AROCLOR 1254 (30%), Method: PREINCUBATION
[12] = Test System: AMES SALMONELLA TYPHIMURIUM, Strain/Indicator: TA1535, Metabolic Activation: NONE, Method: PREINCUBATION

## CC1(C)CC(C(=O)NC(CO)C(O)CO)C(C)(C)N1O (stereo unspecified)
Test System: CHO, Strain/Indicator: CHO/6-THIOGUANINE, Metabolic Activation: NONE, Method: STANDARD PLATE
  mutagenic call: inactive; negative
Test System: CHO, Strain/Indicator: CHO/6-THIOGUANINE, Metabolic Activation: RAT, LIVER, S-9, AROCLOR 1254, Method: STANDARD PLATE
  mutagenic call: inactive; negative
Test System: CHO, Strain/Indicator: CHO/OUABAIN, Metabolic Activation: NONE, Method: STANDARD PLATE
  mutagenic call: inactive; negative
Test System: CHO, Strain/Indicator: CHO/OUABAIN, Metabolic Activation: RAT, LIVER, S-9, AROCLOR 1254, Method: STANDARD PLATE
  mutagenic call: inactive; negative

## CCCCCc1cc(O)cc(O)c1
Test System: AMES SALMONELLA TYPHIMURIUM, Strain/Indicator: TA97, Metabolic Activation: HAMSTER, LIVER, S-9, AROCLOR 1254 (10 OR 30%), Method: PREINCUBATION
  mutagenic call: inactive; negative
[1]
  mutagenic call: inactive; negative
Test System: AMES SALMONELLA TYPHIMURIUM, Strain/Indicator: TA97, Metabolic Activation: RAT, LIVER, S-9, AROCLOR 1254 (10 OR 30%), Method: PREINCUBATION
  mutagenic call: inactive; negative
[2]
  mutagenic call: inactive; negative
[3]
  mutagenic call: inactive; negative
[4]
  mutagenic call: inactive; negative
[5]
  mutagenic call: inactive; negative
[6]
  mutagenic call: inactive; negative
[7]
  mutagenic call: inactive; negative
[8]
  mutagenic call: inactive; negative
[9]
  mutagenic call: inactive; negative
[10]
  mutagenic call: inactive; negative
[11]
  mutagenic call: inactive; negative
Test System: AMES SALMONELLA TYPHIMURIUM, Strain/Indicator: TA1535, Metabolic Activation: HAMSTER, LIVER, S-9, AROCLOR 1254 (10 OR 30%), Method: PREINCUBATION
  mutagenic call: inactive; negative
[12]
  mutagenic call: inactive; negative
Test System: AMES SALMONELLA TYPHIMURIUM, Strain/Indicator: TA1535, Metabolic Activation: RAT, LIVER, S-9, AROCLOR 1254 (10 OR 30%), Method: PREINCUBATION
  mutagenic call: inactive; negative

## CC(=O)CC(=O)Nc1ccccc1
End Point: In vitro chromosomal aberrations, Test System: Chinese hamster lung (CHL/IU) cells, Metabolic Activation: Rat, Liver, S9, Phenobarbital and 5,6-benzoflavone
  mutagenic call: inactive; negative
Test System: AMES SALMONELLA TYPHIMURIUM, Strain/Indicator: TA97, Metabolic Activation: HAMSTER, LIVER, S-9, AROCLOR 1254 (10%), Method: PREINCUBATION
  mutagenic call: inactive; negative
Test System: AMES SALMONELLA TYPHIMURIUM, Strain/Indicator: TA97, Metabolic Activation: HAMSTER, LIVER, S-9, AROCLOR 1254 (30%), Method: PREINCUBATION
  mutagenic call: inactive; negative
[1]
  mutagenic call: inactive; negative
Test System: AMES SALMONELLA TYPHIMURIUM, Strain/Indicator: TA97, Metabolic Activation: RAT, LIVER, S-9, AROCLOR 1254 (10%), Method: PREINCUBATION
  mutagenic call: inactive; negative
Test System: AMES SALMONELLA TYPHIMURIUM, Strain/Indicator: TA97, Metabolic Activation: RAT, LIVER, S-9, AROCLOR 1254 (30%), Method: PREINCUBATION
  mutagenic call: inactive; negative
[2]
  mutagenic call: inactive; negative
[3]
  mutagenic call: inactive; negative
[4]
  mutagenic call: inactive; negative
[5]
  mutagenic call: inactive; negative
[6]
  mutagenic call: inactive; negative
[7]
  mutagenic call: inactive; negative
[8]
  mutagenic call: inactive; negative
[9]
  mutagenic call: inactive; negative
[10]
  mutagenic call: inactive; negative
[11]
  mutagenic call: inactive; negative
Test System: AMES SALMONELLA TYPHIMURIUM, Strain/Indicator: TA1535, Metabolic Activation: HAMSTER, LIVER, S-9, AROCLOR 1254 (10%), Method: PREINCUBATION
  mutagenic call: inactive; negative
Test System: AMES SALMONELLA TYPHIMURIUM, Strain/Indicator: TA1535, Metabolic Activation: HAMSTER, LIVER, S-9, AROCLOR 1254 (30%), Method: PREINCUBATION
  mutagenic call: inactive; negative
[12]
  mutagenic call: inactive; negative
Test System: AMES SALMONELLA TYPHIMURIUM, Strain/Indicator: TA1535, Metabolic Activation: RAT, LIVER, S-9, AROCLOR 1254 (10%), Method: PREINCUBATION
  mutagenic call: inactive; negative
Test System: AMES SALMONELLA TYPHIMURIUM, Strain/Indicator: TA1535, Metabolic Activation: RAT, LIVER, S-9, AROCLOR 1254 (30%), Method: PREINCUBATION
  mutagenic call: inactive; negative
Test System: Ames Salmonella typhimurium, Strain/Indicator: TA98, Metabolic Activation: None, Method: Preincubation
  mutagenic call: inactive; negative
Test System: Ames Salmonella typhimurium, Strain/Indicator: TA98, Metabolic Activation: Rat, Liver, S9, Sodium phenobarbital and 5,6-benzoflavone (10%), Method: Preincubation
  mutagenic call: inactive; negative
Test System: Ames Salmonella typhimurium, Strain/Indicator: TA100, Metabolic Activation: None, Method: Preincubation
  mutagenic call: inactive; negative
Test System: Ames Salmonella typhimurium, Strain/Indicator: TA100, Metabolic Activation: Rat, Liver, S9, Sodium phenobarbital and 5,6-benzoflavone (10%), Method: Preincubation
  mutagenic call: inactive; negative
Test System: Ames Salmonella typhimurium, Strain/Indicator: TA1535, Metabolic Activation: None, Method: Preincubation
  mutagenic call: inactive; negative
Test System: Ames Salmonella typhimurium, Strain/Indicator: TA1535, Metabolic Activation: Rat, Liver, S9, Sodium phenobarbital and 5,6-benzoflavone (10%), Method: Preincubation
  mutagenic call: inactive; negative
Test System: Ames Salmonella typhimurium, Strain/Indicator: TA1537, Metabolic Activation: None, Method: Preincubation
  mutagenic call: inactive; negative
Test System: Ames Salmonella typhimurium, Strain/Indicator: TA1537, Metabolic Activation: Rat, Liver, S9, Sodium phenobarbital and 5,6-benzoflavone (10%), Method: Preincubation
  mutagenic call: inactive; negative
Test System: E. coli, Strain/Indicator: WP2uvrA/pKM101, Metabolic Activation: None, Method: Preincubation
  mutagenic call: active; positive
Test System: E. coli, Strain/Indicator: WP2uvrA/pKM101, Metabolic Activation: Rat, Liver, S9, Sodium phenobarbital and 5,6-benzoflavone (10%), Method: Preincubation
  mutagenic call: active; positive

## CCCCCCCCCCOC[N+](C)(C)CCCCCCCC
Test System: BACILLUS SUBTILIS, Strain/Indicator: H17/REC, Metabolic Activation: NONE, Method: STANDARD PLATE
  mutagenic call: inactive; negative
Test System: BACILLUS SUBTILIS, Strain/Indicator: M45, Metabolic Activation: NONE, Method: STANDARD PLATE
  mutagenic call: inactive; negative

## O=[N+]([O-])c1ccc2ccc3c4ccccc4nc4ccc1c2c43
Test System: AMES SALMONELLA TYPHIMURIUM, Strain/Indicator: TA98(1,8-DNP6), Metabolic Activation: NONE
  mutagenic call: active; positive
Test System: AMES SALMONELLA TYPHIMURIUM, Strain/Indicator: TA98(NR), Metabolic Activation: NONE
  mutagenic call: active; positive
Test System: AMES SALMONELLA TYPHIMURIUM, Strain/Indicator: TA98, Metabolic Activation: NONE
  mutagenic call: active; positive
